In brackets after ≈: the same amount, converted by molar mass.
How the values were obtained:
[1] = test system: MCF7; test: Antiproliferative activity against human MCF7 cells assessed as inhibition of cell growth at 100 uM relative to control; type: functional
[2] = test system: SF-268; test: Antiproliferative activity against human SF-268 cells assessed as inhibition of cell growth at 100 uM relative to control; type: functional
[3] = test system: MCF7; test: Antiproliferative activity against human MCF7 cells assessed as inhibition of cell growth by MTT assay; type: functional, cell-based
[4] = test system: MDA-MB-231; test: Antiproliferative activity against human MDA-MB-231 cells assessed as inhibition of cell growth by MTT assay; type: functional, cell-based
[5] = test system: MCF7; test: Antiproliferative activity against human MCF7 cells assessed as inhibition of cell growth by [3H]thymidine incorporation assay; type: functional, cell-based
[6] = test system: MDA-MB-231; test: Antiproliferative activity against human MDA-MB-231 cells assessed as inhibition of cell growth by [3H]thymidine incorporation assay; type: functional, cell-based
[7] = test system: MCF7; test: Antiproliferative activity against human MCF7 cells assessed as inhibition of cell growth; type: functional, cell-based
[8] = test system: NCI-H460; test: Antiproliferative activity against human NCI-H460 cells assessed as inhibition of cell growth; type: functional, cell-based
[9] = test system: SF-268; test: Antiproliferative activity against human SF-268 cells assessed as inhibition of cell growth; type: functional, cell-based
[10] = test system: HL-60; test: Antiproliferative activity against human HL-60 cells assessed as inhibition of cell growth under normoxia condition incubated for 72 hrs by MTT assay; type: functional, cell-based; conditions: HL-60, 72 h
[11] = test system: Bel-7402; test: Antiproliferative activity against human Bel-7402 cells assessed as inhibition of cell growth under normoxia condition incubated for 72 hrs by MTT assay; type: functional, cell-based; conditions: Bel-7402, 72 h
[12] = test system: ECa-109 cell line; test: Antiproliferative activity against human Eca-109 cells assessed as inhibition of cell growth under normoxia condition incubated for 72 hrs by MTT assay; type: functional, cell-based; conditions: ECa-109, 72 h
[13] = test system: PC-3; test: Antiproliferative activity against human PC-3 cells assessed as inhibition of cell growth under normoxia condition incubated for 72 hrs by MTT assay; type: functional, cell-based; conditions: PC-3, 72 h
[14] = test system: MCF7; test: Antiproliferative activity against human MCF7 cells assessed as inhibition of cell growth under normoxia condition incubated for 72 hrs by MTT assay; type: functional, cell-based; conditions: MCF7, 72 h
[15] = test system: HL-60; test: Antiproliferative activity against human HL-60 cells assessed as inhibition of cell growth under hypoxia condition incubated for 72 hrs by MTT assay; type: functional, cell-based; conditions: HL-60, 72 h
[16] = test system: Bel-7402; test: Antiproliferative activity against human Bel-7402 cells assessed as inhibition of cell growth under hypoxia condition incubated for 72 hrs by MTT assay; type: functional, cell-based; conditions: Bel-7402, 72 h
[17] = test system: ECa-109 cell line; test: Antiproliferative activity against human Eca-109 cells assessed as inhibition of cell growth under hypoxia condition incubated for 72 hrs by MTT assay; type: functional, cell-based; conditions: ECa-109, 72 h
[18] = test system: MCF7; test: Antiproliferative activity against human MCF7 cells assessed as inhibition of cell growth under hypoxia condition incubated for 72 hrs by MTT assay; type: functional, cell-based; conditions: MCF7, 72 h
[19] = test system: PC-3; test: Antiproliferative activity against human PC-3 cells assessed as inhibition of cell growth under hypoxia condition incubated for 72 hrs by MTT assay; type: functional, cell-based; conditions: PC-3, 72 h
[20] = Ratio of IC50 for antiproliferative activity against human HL-60 cells assessed as inhibition of cell growth under normoxia condition to IC50 for antiproliferative activity against human HL-60 cells assessed as inhibition of cell growth under hypoxia condition; type: functional
[21] = Ratio of IC50 for antiproliferative activity against human Bel-7402 cells assessed as inhibition of cell growth under normoxia condition to IC50 for antiproliferative activity against human Bel-7402 cells assessed as inhibition of cell growth under hypoxia condition; type: functional
[22] = Ratio of IC50 for antiproliferative activity against human Eca-109 cells assessed as inhibition of cell growth under normoxia condition to IC50 for antiproliferative activity against human Eca-109 cells assessed as inhibition of cell growth under hypoxia condition; type: functional
[23] = Ratio of IC50 for antiproliferative activity against human PC-3 cells assessed as inhibition of cell growth under normoxia condition to IC50 for antiproliferative activity against human PC-3 cells assessed as inhibition of cell growth under hypoxia condition; type: functional
[24] = molecular target: T1, Interleukin-1 receptor-associated kinase 4 (Homo sapiens, UniProt Q9NWZ3); test: Inhibition of human GST-tagged IRAK4 incubated for 30 mins in presence of ATP by fluorescent polarization assay
T1 sequence (Q9NWZ3 whole entry): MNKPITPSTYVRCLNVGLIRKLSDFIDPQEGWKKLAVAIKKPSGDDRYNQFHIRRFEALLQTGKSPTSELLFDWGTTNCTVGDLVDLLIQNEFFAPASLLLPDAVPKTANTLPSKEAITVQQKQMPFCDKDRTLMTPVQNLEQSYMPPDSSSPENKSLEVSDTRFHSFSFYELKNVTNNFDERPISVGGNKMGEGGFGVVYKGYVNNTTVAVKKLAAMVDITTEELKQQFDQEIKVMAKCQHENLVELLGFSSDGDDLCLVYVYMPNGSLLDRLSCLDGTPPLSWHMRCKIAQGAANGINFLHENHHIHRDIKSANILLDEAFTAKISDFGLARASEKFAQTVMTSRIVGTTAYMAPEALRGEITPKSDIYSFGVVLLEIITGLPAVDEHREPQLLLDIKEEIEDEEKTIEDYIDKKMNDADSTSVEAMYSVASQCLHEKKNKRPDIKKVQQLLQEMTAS

[25] = molecular target: Cyclin-dependent kinase 2/cyclin E1 (Homo sapiens, UniProt P24941); test: Inhibition of CDK2/cyclin E1 (unknown origin) expressed in Sf9 cells
[26] = Cytotoxicity against human CEM cells assessed as inhibition of cell growth incubated for 72 hrs by MTT assay; type: toxicity, cell-based; conditions: CEM (CCRF-CEM) cells, pooled result: one value given for 5 cell lines, strains, targets or settings
[27] = test system: MCF7; test: Cytotoxicity against human MCF7 cells assessed as inhibition of cell growth incubated for 72 hrs by MTT assay; type: functional, cell-based; conditions: MCF7, 72 h
[28] = Ratio of IC50 for antiproliferative activity against human MCF7 cells assessed as inhibition of cell growth under normoxia condition to IC50 for antiproliferative activity against human MCF7 cells assessed as inhibition of cell growth under hypoxia condition; type: functional
[29] = test system: HepG2; test: Antiproliferative activity against human HepG2 cells assessed as cell growth inhibition by MTT assay; type: functional, cell-based
[30] = test system: HCT-116; test: Antiproliferative activity against human HCT-116 cells assessed as inhibition of cell growth by MTT assay; type: functional, cell-based
[31] = test system: Panel NCI-60 (60 carcinoma cell lines); test: Antiproliferative activity against human Panel NCI-60 (60 carcinoma cell lines) assessed as cell growth inhibition incubated for 48 hrs by SRB assay; type: functional

`CC(=O)OC[C@H]1O[C@@H](n2nc(Cc3ccccc3)c(=S)n(N)c2=S)[C@H](OC(C)=O)[C@@H](OC(C)=O)[C@H]1OC(C)=O` showed an inhibition at 100 µM [1] of 15% and an inhibition at 100 µM [2] of 38%.
`c1ccc(-c2nnc(SSc3nnc(-c4ccccc4)c(-c4ccccc4)n3)nc2-c2ccccc2)cc1` showed an IC50 [3] of 25000 nM, an IC50 [4] of 25000 nM and an IC50 [5] of 35000 nM. It also gave an IC50 [6] of 39000 nM.
In the case of `c1ccc(-c2cc(SN3CCOCC3)nnc2-c2ccccc2)cc1`, the IC50 [3] is reported as 91000 nM, the IC50 [4] is reported as 88000 nM and the IC50 [5] is reported as 87000 nM. It also gave an IC50 [6] of 84000 nM.
`c1ccc(-c2cc(SN3CCCC3)nnc2-c2ccccc2)cc1` gave an IC50 [3] of 30000 nM, an IC50 [4] of 25000 nM and an IC50 [5] of 15000 nM. The IC50 [6] was 40000 nM.
With `Cc1ccc(C2=NN=C(/C(C#N)=N/Nc3sc4c(c3C#N)CCCC4)N(Nc3ccccc3)C2)cc1` the IC50 [7] was 12400 nM, the IC50 [8] was 6800 nM and the IC50 [9] was 8300 nM.
Compound `CCNc1n[n+]([O-])c2cc([N+](=O)[O-])ccc2[n+]1[O-]` has an IC50 [10] of 200 nM, an IC50 [11] of 200 nM and an IC50 [12] of 200 nM. It also gave an IC50 [13] of 200 nM, an IC50 [14] of 200 nM and an IC50 [15] of 200 nM. The IC50 [16] was 200 nM, the IC50 [17] was 200 nM and the IC50 [18] was 200 nM. The IC50 [19] was 200 nM, the “Ratio IC50” value [20] was 1.4 and the “Ratio IC50” value [21] was 1.6. The “Ratio IC50” value [22] was 2.2 and the “Ratio IC50” value [23] was 1.9.
`Cn1cc(NC(=O)c2ccc3cnc(NC4CCCCC4N)nn23)c(C(N)=O)n1` (centres undefined) showed an IC50 [24] of 0.7 nM.
For `NC(=O)c1nn(CCO)cc1NC(=O)c1ccc2cnc(NC3CCCCC3N)nn12` (centres undefined), the IC50 [24] was 3 nM.
Compound `Oc1cccc(-n2nc(-c3cc(O)c(O)c(O)c3)c3nc(-c4ccc(Cl)cc4)nnc32)c1` has an IC50 [25] of 17300 nM, an IC50 at 72 h [26] of 1900 nM and an IC50 [27] of 1900 nM.
`[O-][n+]1nc(NCc2ccccc2)[n+]([O-])c2ccc(Cl)cc21` gave an IC50 [10] of 200 nM, an IC50 [11] of 200 nM and an IC50 [12] of 200 nM. The IC50 [13] was 200 nM, the IC50 [14] was 200 nM and the IC50 [15] was 200 nM. For the same compound, the IC50 [16] was 200 nM, the IC50 [17] was 200 nM and the IC50 [18] was 200 nM. The IC50 [19] was 200 nM, the “Ratio IC50” value [20] was 1 and the “Ratio IC50” value [21] was 1.8. The “Ratio IC50” value [22] was 3.2, the “Ratio IC50” value [28] was 1.1 and the “Ratio IC50” value [23] was 1.4.
Work on `[O-][n+]1nc(Nc2ccccc2)[n+]([O-])c2ccc(Cl)cc21` yielded an IC50 [10] of 200 nM, an IC50 [11] of 200 nM and an IC50 [12] of 200 nM. For the same compound, the IC50 [13] was 200 nM, the IC50 [14] was 200 nM and the IC50 [15] was 200 nM. The IC50 [16] was 200 nM, the IC50 [17] was 200 nM and the IC50 [18] was 200 nM. The IC50 [19] was 200 nM, the “Ratio IC50” value [20] was 6.9 and the “Ratio IC50” value [22] was 2.8. For the same compound, the “Ratio IC50” value [28] was 3 and the “Ratio IC50” value [23] was 1.3.
For `O=C(O)c1ccccc1-c1nn2c(=O)c(/C=C/c3cccs3)nnc2s1`, the IC50 [3] was 8.34 µg/mL, the IC50 [29] was 8.34 µg/mL (≈ 21.8 µM) and the IC50 [30] was 8.34 µg/mL (≈ 21.8 µM).
Compound `Oc1cc(-c2nn(-c3cc(O)c(O)c(O)c3)c3nnc(-c4ccc(Cl)cc4)nc23)cc(O)c1O` has an IC50 [25] of 11000 nM, an IC50 at 72 h [26] of 770 nM and an IC50 [27] of 770 nM.
Work on `O=C1CNN(CSc2nc3ccc(I)cc3c(=O)n2Cc2ccccc2)C=N1` yielded a GI50 [31] of 22600 nM, a TGI [31] of 61400 nM and a CC50 ([31]; read-out: LC50 (the source's name)) of 89300 nM.

Source: ChEMBL document CHEMBL5260813, “An overview on the recent developments of 1,2,4-triazine derivatives as anticancer compounds” (Eur J Med Chem, 2017)
